In paper PMC3058180 (Journal of pharmaceutical sciences, 2010):

Columns and labels:
A/Wuhan/359/95 (H3N2) = assay: microbe, parasite or virus in culture; assay type: cell-based; details: Influenza A virus, H3N2, MDCK, read-out: IC50 (nM of Zanamivir)
[1] = test system: A/turkey/MN/833/80 (H4N2); assay: microbe, parasite or virus in culture; assay type: cell-based; details: Influenza A virus, H4N2, MDCK, read-out: IC50 (nM of Zanamivir)

SMILES: CC(=O)N[C@H]1[C@H]([C@H](O)[C@H](O)CO)OC(C(=O)O)=C[C@@H]1N=C(N)N [compound 1, Zanamivir]
- IC50 (A/Wuhan/359/95 (H3N2)): 23000 nM
- IC50 [1]: 21000 nM
